ChEMBL document CHEMBL1275576, “In vitro activity of tomopenem (CS-023/RO4908463) against anaerobic bacteria” (Antimicrob Agents Chemother, 2009)

What was measured:
[1] = Half life in rhesus monkey at 10 mg/kg by HPLC method; assay type: ADME, organism-based, Macaca mulatta; set-up: dose 10 mg/kg; conditions: in vivo
[2] = Half life in human at […] by HPLC method; assay type: ADME, organism-based; conditions: in vivo
Plasma = test: Plasma protein binding in human at […] by HPLC method; assay type: ADME, cell-free

- half-life [1]: 5 h
- half-life [2]: 5 h
- Activity (Plasma): > 95%
Compound: C[C@@H](O)[C@H]1C(=O)N2C(C(=O)O)=C(S[C@@H]3CN[C@H](C(=O)Nc4cccc(C(=O)O)c4)C3)[C@H](C)[C@H]12
